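Abbreviation: GI50, concentration required for 50% inhibition of growth. TGI: concentration producing complete growth inhibition.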
Columns and labels:
Test in all cases: NCI tumour cell line growth inhibition, 384-well format
786-0 renal = test system: 786-0 renal
A498 renal = test system: A498 renal
A549 NSCLC = test system: A549 NSCLC
ACHN renal = test system: ACHN renal
BT-549 breast = test system: BT-549 breast
CAKI-1 renal = test system: CAKI-1 renal
CCRF-CEM leukemia = test system: CCRF-CEM leukemia
COLO 205 colon = test system: COLO 205 colon
DU-145 prostate = test system: DU-145 prostate
EKVX NSCLC = test system: EKVX NSCLC
HCC-2998 colon = test system: HCC-2998 colon
HCT-116 colon = test system: HCT-116 colon
HCT-15 colon = test system: HCT-15 colon
HL-60(TB) leukemia = test system: HL-60(TB) leukemia
HOP-62 NSCLC = test system: HOP-62 NSCLC
HOP-92 NSCLC = test system: HOP-92 NSCLC
HS 578T breast = test system: HS 578T breast
HT29 colon = test system: HT29 colon
IGROV1 ovarian = test system: IGROV1 ovarian
K-562 leukemia = test system: K-562 leukemia
KM12 colon = test system: KM12 colon
LOX IMVI melanoma = test system: LOX IMVI melanoma
M14 melanoma = test system: M14 melanoma
MALME-3M melanoma = test system: MALME-3M melanoma
MCF7 breast = test system: MCF7 breast
MDA-MB-231 breast = test system: MDA-MB-231 breast
MDA-MB-435 melanoma = test system: MDA-MB-435 melanoma
MDA-MB-468 breast = test system: MDA-MB-468 breast
MOLT-4 leukemia = test system: MOLT-4 leukemia
NCI-H226 lung = test system: NCI-H226 lung
NCI-H23 lung = test system: NCI-H23 lung
NCI-H322M lung = test system: NCI-H322M lung
NCI-H460 NSCLC = test system: NCI-H460 NSCLC
NCI-H522 lung = test system: NCI-H522 lung
NCI/ADR-RES ovarian = test system: NCI/ADR-RES ovarian
OVCAR-3 ovarian = test system: OVCAR-3 ovarian
OVCAR-4 ovarian = test system: OVCAR-4 ovarian
OVCAR-5 ovarian = test system: OVCAR-5 ovarian
OVCAR-8 ovarian = test system: OVCAR-8 ovarian
PC-3 prostate = test system: PC-3 prostate
RPMI-8226 leukemia = test system: RPMI-8226 leukemia
RXF 393 renal = test system: RXF 393 renal
SF-268 CNS = test system: SF-268 CNS
SF-295 CNS = test system: SF-295 CNS
SF-539 CNS = test system: SF-539 CNS
SK-MEL-28 melanoma = test system: SK-MEL-28 melanoma
SK-MEL-5 melanoma = test system: SK-MEL-5 melanoma
SK-OV-3 ovarian = test system: SK-OV-3 ovarian
SN12C renal = test system: SN12C renal
SNB-19 CNS = test system: SNB-19 CNS
SNB-75 CNS = test system: SNB-75 CNS
SR leukemia = test system: SR leukemia
SW-620 colon = test system: SW-620 colon
T-47D breast = test system: T-47D breast
TK-10 renal = test system: TK-10 renal
U251 glioblastoma = test system: U251 glioblastoma
UACC-257 melanoma = test system: UACC-257 melanoma
UO-31 renal = test system: UO-31 renal

Cc1ccc(NC(=O)c2cccc(N(C)C)c2)cc1NC(=O)c1ccc(O)cc1
GI50 ([…]-0 renal): 33.5 µM
TGI (786-0 renal): > 100 µM
GI50 (A498 renal): 48.2 µM
TGI (A498 renal): > 100 µM
GI50 (A549 NSCLC): 41.5 µM
TGI (A549 NSCLC): > 100 µM
GI50 (ACHN renal): 40.2 µM
TGI (ACHN renal): > 100 µM
GI50 (BT-549 breast): 75.2 µM
TGI (BT-549 breast): > 100 µM
GI50 (CAKI-1 renal): 54.6 µM
TGI (CAKI-1 renal): > 100 µM
GI50 (CCRF-CEM leukemia): 22.5 µM
TGI (CCRF-CEM leukemia): 70.7 µM
GI50 (COLO 205 colon): 18.8 µM
TGI (COLO 205 colon): 87.2 µM
GI50 (DU-145 prostate): 47.5 µM
TGI (DU-145 prostate): > 100 µM
GI50 (EKVX NSCLC): 45.3 µM
TGI (EKVX NSCLC): > 100 µM
GI50 (HCC-2998 colon): 16.9 µM
TGI (HCC-2998 colon): 36.9 µM
GI50 (HCT-116 colon): 29.6 µM
TGI (HCT-116 colon): > 100 µM
GI50 (HCT-15 colon): 30.4 µM
TGI (HCT-15 colon): > 100 µM
GI50 (HL-60(TB) leukemia): 12.5 µM
TGI (HL-60(TB) leukemia): 25.2 µM
GI50 (HOP-62 NSCLC): 43.6 µM
TGI (HOP-62 NSCLC): > 100 µM
GI50 (HOP-92 NSCLC): 38.9 µM
TGI (HOP-92 NSCLC): > 100 µM
GI50 (HS 578T breast): 41.9 µM
TGI (HS 578T breast): > 100 µM
GI50 (HT29 colon): 28.9 µM
TGI (HT29 colon): > 100 µM
GI50 (IGROV1 ovarian): 50.1 µM
TGI (IGROV1 ovarian): > 100 µM
GI50 (K-562 leukemia): 12 µM
TGI (K-562 leukemia): 25.2 µM
GI50 (KM12 colon): 30.6 µM
TGI (KM12 colon): > 100 µM
GI50 (LOX IMVI melanoma): 38.5 µM
TGI (LOX IMVI melanoma): > 100 µM
GI50 (M14 melanoma): 30.5 µM
TGI (M14 melanoma): > 100 µM
GI50 (MALME-3M melanoma): 23.5 µM
TGI (MALME-3M melanoma): 71.5 µM
GI50 (MCF7 breast): 30.3 µM
TGI (MCF7 breast): > 100 µM
GI50 (MDA-MB-231 breast): 32.9 µM
TGI (MDA-MB-231 breast): > 100 µM
GI50 (MDA-MB-435 melanoma): 34.1 µM
TGI (MDA-MB-435 melanoma): > 100 µM
GI50 (MDA-MB-468 breast): 18.1 µM
TGI (MDA-MB-468 breast): 50.5 µM
GI50 (MOLT-4 leukemia): 16.8 µM
TGI (MOLT-4 leukemia): 34.4 µM
GI50 (NCI-H226 lung): 39.6 µM
TGI (NCI-H226 lung): > 100 µM
GI50 (NCI-H23 lung): 29.3 µM
TGI (NCI-H23 lung): > 100 µM
GI50 (NCI-H322M lung): 56.7 µM
TGI (NCI-H322M lung): > 100 µM
GI50 (NCI-H460 NSCLC): 30.6 µM
TGI (NCI-H460 NSCLC): > 100 µM
GI50 (NCI-H522 lung): 29.4 µM
TGI (NCI-H522 lung): > 100 µM
GI50 (NCI/ADR-RES ovarian): 38.9 µM
TGI (NCI/ADR-RES ovarian): > 100 µM
GI50 (OVCAR-3 ovarian): 36.9 µM
TGI (OVCAR-3 ovarian): > 100 µM
GI50 (OVCAR-4 ovarian): 33.8 µM
TGI (OVCAR-4 ovarian): > 100 µM
GI50 (OVCAR-5 ovarian): 69.8 µM
TGI (OVCAR-5 ovarian): > 100 µM
GI50 (OVCAR-8 ovarian): 37.3 µM
TGI (OVCAR-8 ovarian): > 100 µM
GI50 (PC-3 prostate): 41.6 µM
TGI (PC-3 prostate): > 100 µM
GI50 (RPMI-8226 leukemia): 12.7 µM
TGI (RPMI-8226 leukemia): 34.1 µM
GI50 (RXF 393 renal): 16.6 µM
TGI (RXF 393 renal): 33.2 µM
GI50 (SF-268 CNS): 48.4 µM
TGI (SF-268 CNS): > 100 µM
GI50 (SF-295 CNS): 25.9 µM
TGI (SF-295 CNS): 81.4 µM
GI50 (SF-539 CNS): 42.8 µM
TGI (SF-539 CNS): > 100 µM
GI50 (SK-MEL-28 melanoma): 26.3 µM
TGI (SK-MEL-28 melanoma): 74.1 µM
GI50 (SK-MEL-5 melanoma): 14.9 µM
TGI (SK-MEL-5 melanoma): 52.5 µM
GI50 (SK-OV-3 ovarian): 43.2 µM
TGI (SK-OV-3 ovarian): > 100 µM
GI50 (SN12C renal): 57 µM
TGI (SN12C renal): > 100 µM
GI50 (SNB-19 CNS): 89.8 µM
TGI (SNB-19 CNS): > 100 µM
GI50 (SNB-75 CNS): 54.4 µM
TGI (SNB-75 CNS): > 100 µM
GI50 (SR leukemia): 15 µM
TGI (SR leukemia): 33.5 µM
GI50 (SW-620 colon): 59.2 µM
TGI (SW-620 colon): > 100 µM
GI50 (T-47D breast): 15.1 µM
TGI (T-47D breast): 33.6 µM
GI50 (TK-10 renal): 26.8 µM
TGI (TK-10 renal): 91.2 µM
GI50 (U251 glioblastoma): 63.5 µM
TGI (U251 glioblastoma): > 100 µM
GI50 (UACC-257 melanoma): 25.1 µM
TGI (UACC-257 melanoma): 69.1 µM
GI50 (UO-31 renal): 30.4 µM
TGI (UO-31 renal): > 100 µM
